Values of other authors in PubChem BioAssay AID1259409 (Chemical Carcinogenesis Research Information System (CCRIS), 2018).
Several values for one entry are separate records, joined by “and”; a condition that tells them apart may be missing. Identical values can stand only once.

System: rodent chemically induced tumor inhibition, incidence and multiplicity
Assay: CCRIS tumor inhibitor studies

SMILES: O=C(O)/C=C/c1ccccc1O
- tumour outcome (control, treated, inhibition, significance) (Carcinogen: BENZO[A]PYRENE, 50-32-8, Dose [Inhibitor]: 0.03 MMOL/G OF DIET DAILY STARTING 7 D BEFORE AND CONTINUING THROUGH 3 D AFTER CARCINOGEN TREATMENT FOLLOWED BY OBSERVAT, Route [Inhibitor]: ORAL, Species: MOUSE, Strain/Sex: ICR/FEMALE, Target Tissue: Type of Lesion: FORESTOMACH: NEOPLASM, Dose [Carcinogen]: 1 MG IN 0.2 ML CORN OIL 2/WK FOR 4 WK, Promoter: NONE USED): 100%, 100%, 0%, not significant
- tumour outcome (control, treated, inhibition, significance) (Carcinogen: BENZO[A]PYRENE, 50-32-8, Dose [Inhibitor]: 0.06 MMOL/G OF DIET DAILY STARTING 7 D BEFORE AND CONTINUING THROUGH 3 D AFTER CARCINOGEN TREATMENT FOLLOWED BY OBSERVAT, Route [Inhibitor]: ORAL, Species: MOUSE, Strain/Sex: ICR/FEMALE, Target Tissue: Type of Lesion: FORESTOMACH: NEOPLASM, Dose [Carcinogen]: 1 MG IN 0.2 ML CORN OIL 2/WK FOR 4 WK, Promoter: NONE USED): 100%, 84%, 16%, not significant and 97%, 89%, 8%, not significant and 100%, 82%, 18%, not significant

SMILES: O=C(O[C@@H]1Cc2c(O)cc(O)cc2O[C@@H]1c1cc(O)c(O)c(O)c1)c1cc(O)c(O)c(O)c1
- tumour outcome (control, treated, inhibition, significance) (Carcinogen: 4-(METHYLNITROSAMINO)-1-(3-PYRIDYL)-1-BUTANONE, 64091-91-4, Dose [Inhibitor]: 0, 560 PPM IN DRINKING WATER FOR 13 WK BEGINNING 2 WK PRIOR TO CARCINOGEN TREATMENT (STUDY DURATION: 18 WK), Route [Inhibitor]: ORAL, Species: MOUSE, Strain/Sex: STRAIN-A/FEMALE, Target Tissue: Type of Lesion: LUNG: ADENOMA, Dose [Carcinogen]: 11.65 MG/KG 3/WK FOR 10 WK, Promoter: NONE USED): 100%, 100%, 0%, not significant
- tumour outcome (control, treated, inhibition, significance) (Carcinogen: 4-NITROQUINOLINE-N-OXIDE (56-57-5), Dose [Inhibitor]: 0.05% IN DIET FOR 25 WKS (STUDY DURATION: 25 WKS), Route [Inhibitor]: DIET, Species: MOUSE, Strain/Sex: DDY/MALE (10,10)/(10,?), Target Tissue: Type of Lesion: LUNG, Dose [Carcinogen]: 10 MG/KG BW ONCE, Promoter: CACODYLIC ACID (75-60-5)): 100%, 70%, 30%, not calculated
- tumour outcome (control, treated, inhibition, significance) (Carcinogen: 7,12-DIMETHYLBENZ[A]ANTHRACENE, 57-97-6, Dose [Inhibitor]: 0, 0.5% (81% EGCG) IN DIET OF RATS WITH TUMORS AT 13 WK POST CARCINOGEN DOSE (STUDY DURATION: 36 WK), Route [Inhibitor]: ORAL, Species: RAT, Strain/Sex: SPRAGUE-DAWLEY/FEMALE, Target Tissue: Type of Lesion: MAMMARY GLAND: CARCINOMA, Dose [Carcinogen]: 50 MG/KG BW ONCE, Promoter: NONE USED): 14/14 (100%), 14/14 (100%), 0%, not significant
- tumour outcome (control, treated, inhibition, significance) (Carcinogen: 7,12-DIMETHYLBENZ[A]ANTHRACENE, 57-97-6, Dose [Inhibitor]: 0, 0.5% (81% EGCG) IN DIET OF RATS WITHOUT TUMORS AT 13 WK POST CARCINOGEN DOSE (STUDY DURATION: 36 WK), Route [Inhibitor]: ORAL, Species: RAT, Strain/Sex: SPRAGUE-DAWLEY/FEMALE, Target Tissue: Type of Lesion: MAMMARY GLAND: CARCINOMA, Dose [Carcinogen]: 50 MG/KG BW ONCE, Promoter: NONE USED): 11/14 (79%), 12/14 (86%), -9%, not significant
- tumour outcome (control, treated, inhibition, significance) (Carcinogen: 7,12-DIMETHYLBENZ[A]ANTHRACENE, 57-97-6, Dose [Inhibitor]: 0, 0.5% POLYPHEN E (58.4% EGCG) IN DIET OF RATS WITH TUMORS AT 13 WK POST CARCINOGEN DOSE (STUDY DURATION: 36 WK), Route [Inhibitor]: ORAL, Species: RAT, Strain/Sex: SPRAGUE-DAWLEY/FEMALE, Target Tissue: Type of Lesion: MAMMARY GLAND: CARCINOMA, Dose [Carcinogen]: 50 MG/KG BW ONCE, Promoter: NONE USED): 14/14 (100%), 14/14 (100%), 0%, not significant
- tumour outcome (control, treated, inhibition, significance) (Carcinogen: 7,12-DIMETHYLBENZ[A]ANTHRACENE, 57-97-6, Dose [Inhibitor]: 0, 5 UMOL IN 0.2 ML ACETONE 1/D FOR 7 D PRIOR TO CARCINOGEN DOSE (STUDY DURATION: 16 WK), Route [Inhibitor]: DERMAL, Species: MOUSE, Strain/Sex: SENCAR/FEMALE, Target Tissue: Type of Lesion: SKIN: TUMOR, Dose [Carcinogen]: 10 NMOL IN 0.2 ML ACETONE ONCE, Promoter: 12-O-TETRADECANOYLPHORBOL-13-ACETATE, 16561-29-8): 100%, 100%, 0%, not significant
- tumour outcome (control, treated, inhibition, significance) (Carcinogen: N-ETHYL-N'-NITRO-N-NITROSGUANIDINE, 4245-77-6, Dose [Inhibitor]: 0, 0.005% IN DIET FOR 12 WK BEGINNING POST CARCINOGEN TREATMENT (STUDY DURATION: 16 WK), Route [Inhibitor]: ORAL, Species: MOUSE, Strain/Sex: C57BL/MALE, Target Tissue: Type of Lesion: DUODENUM: TUMOR, Dose [Carcinogen]: 100 MG/L IN DRINKING WATER FOR 4 WK, Promoter: NONE USED): 63%, 20%, 68%, p<0.001
- tumour outcome (control, treated, inhibition, significance) (Carcinogen: N-ETHYL-N'-NITRO-N-NITROSOGUANIDINE, 4245-77-6, Dose [Inhibitor]: 0, 0.005% IN DIET FOR 12 WK BEGINNING POST CARCINOGEN TREATMENT (STUDY DURATION: 16 WK), Route [Inhibitor]: ORAL, Species: MOUSE, Strain/Sex: C57BL/MALE, Target Tissue: Type of Lesion: DUODENUM: TUMOR, Dose [Carcinogen]: 100 MG/L IN DRINKING WATER FOR 4 WK, Promoter: NONE USED): 63%, 20%, 68%, p<0.001
- tumour outcome (control, treated, inhibition, significance) (Carcinogen: N-ETHYL-N'-NITRO-N-NITROSOGUANIDINE, 4245-77-6, Dose [Inhibitor]: 0.005% (0.15 MG/MOUSE/D) IN DRINKING WATER FOR 12 WK POST CARCINOGEN DOSE (STUDY DURATION: 16 WK), Route [Inhibitor]: ORAL, Species: MOUSE, Strain/Sex: C57BL/MALE, Target Tissue: Type of Lesion: DUODENUM: TUMOR, Dose [Carcinogen]: 100 MG/L DRINKING WATER FOR 4 WK, Promoter: NONE USED): 10/16 (63%), 3/15 (20%), 68%, p<0.001
- tumour outcome (control, treated, inhibition, significance) (Carcinogen: N-METHYL-N'-NITRO-N-NITROSOGUANIDINE, 70-25-7, Dose [Inhibitor]: 0, 0.05% IN DIET FOR 16 WK BEGINNING POST CARCINOGEN TREATMENT (STUDY DURATION: 44 WK), Route [Inhibitor]: ORAL, Species: RAT, Strain/Sex: WISTAR/MALE, Target Tissue: Type of Lesion: STOMACH: TUMOR, Dose [Carcinogen]: 80 MG/L IN DRINKING WATER FOR 28 WK, Promoter: NONE USED): 62%, 31%, 50%, p<0.05
- tumour outcome (control, treated, inhibition, significance) (Carcinogen: N-METHYL-N'-NITRO-N-NITROSOGUANIDINE, 70-25-7, Dose [Inhibitor]: 0, 0.05% IN DRINKING WATER FOR 15 WK (STUDY DURATION: 44 WK), Route [Inhibitor]: ORAL, Species: RAT, Strain/Sex: WISTAR/MALE, Target Tissue: Type of Lesion: GLANDULAR STOMACH: TUMOR, Dose [Carcinogen]: 80 MG/L IN DRINKING WATER FOR 28 WK, Promoter: NONE USED): 21/34 (62%), 11/35 (31%), 50%, p<0.05
- tumour outcome (control, treated, inhibition, significance) (Carcinogen: N-METHYL-N'-NITRO-N-NITROSOGUANIDINE, 70-25-7, Dose [Inhibitor]: 0, 0.05% IN DRINKING WATER FOR 15 WK BEGINNING POST CARCINOGEN TREATMENT (STUDY DURATION: 44 WK), Route [Inhibitor]: ORAL, Species: RAT, Strain/Sex: WISTAR/MALE, Target Tissue: Type of Lesion: GLANDULAR STOMACH: TUMOR, Dose [Carcinogen]: 80 MG/L IN DRINKING WATER FOR 28 WK, Promoter: NONE USED): 21/34 (62%), 11/35 (31%), 50%, p<0.05
- tumour outcome (control, treated, inhibition, significance) (Carcinogen: NONE USED, Dose [Inhibitor]: 0, 0.05% IN DRINKING WATER AD LIBITUM FOR 58 WK (STUDY DURATION: 65 WK), Route [Inhibitor]: ORAL, Species: MOUSE, Strain/Sex: C3H/HENCRJ/MALE, Target Tissue: Type of Lesion: LIVER: HEPATOMA, Promoter: NONE USED): 15/18 (83%), 14/25 (56%), 33%, p<0.05
- tumour outcome (control, treated, inhibition, significance) (Carcinogen: NONE USED, Dose [Inhibitor]: 0, 0.1% IN DRINKING WATER AD LIBITUM FOR 58 WK (STUDY DURATION: 65 WK), Route [Inhibitor]: ORAL, Species: MOUSE, Strain/Sex: C3H/HENCRJ/MALE, Target Tissue: Type of Lesion: LIVER: HEPATOMA, Promoter: NONE USED): 15/18 (83%), 12/23 (52%), 37%, p<0.05

SMILES: CN(C)C(=O)Oc1cccc([N+](C)(C)C)c1
- tumour outcome (control, treated, inhibition, significance) (Carcinogen: AZOXYMETHANE, 25843-45-2, Dose [Inhibitor]: 0.1 MG/KG BW 1/2D IN DEPOT FORM BEGINNING 3 WK PRIOR TO FIRST CARCINOGEN DOSE (STUDY DURATION: 40 WK), Route [Inhibitor]: SUBCUTANEOUS, Species: RAT, Strain/Sex: WISTAR/MALE, Target Tissue: Type of Lesion: COLON: TUMOR, Dose [Carcinogen]: 7.4 MG/KG BW IN 0.9% SALINE SOLUTION 1/WK FOR 10 WK, Promoter: NONE USED): 18/20 (90%), 9/19 (47%), 47%, p<0.02
- tumour outcome (control, treated, inhibition, significance) (Carcinogen: N-METHYL-N'-NITRO-N-NITROSOGUANIDINE, 70-25-7, Dose [Inhibitor]: 0, 0.075 MG/KG 1/2 D BEGINNING POST CARCINOGEN TREATMENT (STUDY DURATION: 52 WK), Route [Inhibitor]: SUBCUTANEOUS, Species: RAT, Strain/Sex: WISTAR/MALE, Target Tissue: Type of Lesion: STOMACH: ADENOCARCINOMA, Dose [Carcinogen]: 75 UG/ML IN DRINKING WATER FOR 25 WK, Promoter: NONE USED): 16/20 (80%), 7/18 (39%), 51%, p<0.05
- tumour outcome (control, treated, inhibition, significance) (Carcinogen: N-METHYL-N'-NITRO-N-NITROSOGUANIDINE, 70-25-7, Dose [Inhibitor]: 0, 0.1 MG/KG IN OLIVE OIL SUSPENSION 1/D BEGINNING 1 WK POST LAST CARCINOGEN DOSE AND CONTINUING FOR DURATION OF STUDY (, Species: RAT, Strain/Sex: WISTAR/MALE, Target Tissue: Type of Lesion: GLANDULAR STOMACH: ADENOCARCINOMA, Dose [Carcinogen]: 50 UG/ML IN DRINKING WATER FOR 25 WK, Promoter: NONE USED): 15/18 (83%), 7/19 (37%), 55%, p<0.02
